Results published in patent US20130066055A1, “NEW BINDER-DRUG CONJUGATES (ADCS) AND USE THEREOF” (Bayer Intellectual Property GmbH, priority 2011, published 2013).
Structures can show the parent of a compound that is named as a salt. Square brackets hold non-standard residues; d marks the D form. Peptide text beside a SMILES is read from it. * marks the point of attachment. X1 = CC(C)[C@@H](C(=O)*)N(C)CCCCCC(=O)NCCCC[C@H](N)C(=O)O; Dolaproine = CO[C@@H]([C@@H]1CCCN1)[C@@H](C)C(=O)O; Dil = CC[C@H](C)[C@H](NC)[C@@H](CC(=O)O)OC; X5 = C[C@@H](N*)[C@@H](O)c1ccccc1; Oxazinan2yl(1,2) = C1CCN(*)OC1; NMeV = CN[C@H](C(=O)O)C(C)C

Tests used:
tubulin = assay: Fluorescence-based microtubule (tubulin) polymerization assay; format: biochemical
Experimental: Tubulin polymerization was investigated using the “Fluorescence-based Microtubule Polymerisation Assay Kit” from Cytoskeleton (Denver, Colo., USA; order number: BK011). With this assay, GTP is added to unpolymerized tubulin, allowing polymerization to take place spontaneously. The assay is based on the binding of the fluorophore 4′,6-di-amidino-2-phenylindole (DAPI) to tubulin. Free and bound DAPI can be differentiated on the basis of different emission spectra.
[…] In addition to the buffer control, paclitaxel, with a polymerization-increasing effect, and vinblastin, with a polymerization inhibiting effect, were run additionally as assay controls. Measurement was carried out using 96-well plates with a half base area. The kinetics of the tubulin polymerization were monitored in a Fluorimeter at 37° C. for 1 hour. The excitation wavelength was 355 nm, and emission was monitored at 460 nm. For the region of linear increase within the first 10 minutes, a calculation was made of the change in fluorescence per minute (ΔF/min), which represents the polymerization rate of the microtubuli. The potency of the test substances was quantified on the basis of their respective reduction of the polymerization rate.

[1] = Caco-2 flux assay for cell permeability; format: in vitro ADME; conditions: human, Caco-2 cells, basal to apical
Experimental: (§1) The cell permeability of a substance can be investigated by means of in vitro testing in a flux assay using Caco-2 cells [M. D. Troutman and D. R. Thakker, Pharm. Res. 20 (8), 1210-1224 (2003)]. For this purpose, the cells were cultured for 15-16 days on 24-well filter plates. For the determination of permeation, the respective working example was applied in a HEPES buffer to the cells either apically (A) or basally (B) and incubated for 2 hours. After 0 hours and after 2 hours, samples were taken from the cis and trans compartments. The samples were separated by HPLC (Agilent 1200, Böblingen, Germany) using reverse phase columns. The HPLC system was coupled via a Turbo Ion Spray Interface to a Triple Quadropol mass spectrometer API 4000 (Applied Biosystems Applera, Darmstadt, Germany). The permeability was evaluated on the basis of a Papp value, which was calculated using the formula published by Schwab et al. [D. Schwab et al., J. Med. Chem. 46, 1716-1725 (2003)].

[2] = biological target: T1, P-glycoprotein (P-gp, ABCB1) (Homo sapiens, UniProt P08183); assay: Flux assay in P-gp overexpressing L-MDR1 cells; format: in vitro ADME; conditions: LLC-PK1, basal to apical
T1 construct: expressed in transfected cells; host or cells: LLC-PK1 (pig kidney) cells transfected with human MDR1 (L-MDR1 cells)
Experimental: The substrate properties of a substance for P-gp (ABCB1) were determined by means of a flux assay using LLC-PK1 cells which overexpress P-gp (L-MDR1 cells) [A. H. Schinkel et al., J. Clin. Invest. 96, 1698-1705 (1995)]. For this purpose, the LLC-PK1 cells or L-MDR1 cells were cultured on 96-well filter plates for 3-4 days. For determination of the permeation, the respective test substance, alone or in the presence of an inhibitor (such as Ivermectin or Verapamil, for example), was applied in a HEPES buffer to the cells either apically (A) or basally (B) and incubated for 2 hours. After 0 hours and after 2 hours, samples were taken from the cis and trans compartments. The samples were separated by HPLC using reverse phase columns. The HPLC system was coupled via a Turbo Ion Spray Interface to a Triple Quadropol mass spectrometer API 3000 (Applied Biosystems Applera, Darmstadt, Germany). The permeability was evaluated on the basis of a Papp value which was calculated using the formula published by Schwab et al. [D. Schwab et al., J. Med. Chem. 46, 1716-1725 (2003)].

Caco-2 cells = assay: Caco-2 flux assay for cell permeability; format: in vitro ADME; conditions: basal to apical, 2 hours
Experimental: as §1

T1 sequence (P08183 whole entry): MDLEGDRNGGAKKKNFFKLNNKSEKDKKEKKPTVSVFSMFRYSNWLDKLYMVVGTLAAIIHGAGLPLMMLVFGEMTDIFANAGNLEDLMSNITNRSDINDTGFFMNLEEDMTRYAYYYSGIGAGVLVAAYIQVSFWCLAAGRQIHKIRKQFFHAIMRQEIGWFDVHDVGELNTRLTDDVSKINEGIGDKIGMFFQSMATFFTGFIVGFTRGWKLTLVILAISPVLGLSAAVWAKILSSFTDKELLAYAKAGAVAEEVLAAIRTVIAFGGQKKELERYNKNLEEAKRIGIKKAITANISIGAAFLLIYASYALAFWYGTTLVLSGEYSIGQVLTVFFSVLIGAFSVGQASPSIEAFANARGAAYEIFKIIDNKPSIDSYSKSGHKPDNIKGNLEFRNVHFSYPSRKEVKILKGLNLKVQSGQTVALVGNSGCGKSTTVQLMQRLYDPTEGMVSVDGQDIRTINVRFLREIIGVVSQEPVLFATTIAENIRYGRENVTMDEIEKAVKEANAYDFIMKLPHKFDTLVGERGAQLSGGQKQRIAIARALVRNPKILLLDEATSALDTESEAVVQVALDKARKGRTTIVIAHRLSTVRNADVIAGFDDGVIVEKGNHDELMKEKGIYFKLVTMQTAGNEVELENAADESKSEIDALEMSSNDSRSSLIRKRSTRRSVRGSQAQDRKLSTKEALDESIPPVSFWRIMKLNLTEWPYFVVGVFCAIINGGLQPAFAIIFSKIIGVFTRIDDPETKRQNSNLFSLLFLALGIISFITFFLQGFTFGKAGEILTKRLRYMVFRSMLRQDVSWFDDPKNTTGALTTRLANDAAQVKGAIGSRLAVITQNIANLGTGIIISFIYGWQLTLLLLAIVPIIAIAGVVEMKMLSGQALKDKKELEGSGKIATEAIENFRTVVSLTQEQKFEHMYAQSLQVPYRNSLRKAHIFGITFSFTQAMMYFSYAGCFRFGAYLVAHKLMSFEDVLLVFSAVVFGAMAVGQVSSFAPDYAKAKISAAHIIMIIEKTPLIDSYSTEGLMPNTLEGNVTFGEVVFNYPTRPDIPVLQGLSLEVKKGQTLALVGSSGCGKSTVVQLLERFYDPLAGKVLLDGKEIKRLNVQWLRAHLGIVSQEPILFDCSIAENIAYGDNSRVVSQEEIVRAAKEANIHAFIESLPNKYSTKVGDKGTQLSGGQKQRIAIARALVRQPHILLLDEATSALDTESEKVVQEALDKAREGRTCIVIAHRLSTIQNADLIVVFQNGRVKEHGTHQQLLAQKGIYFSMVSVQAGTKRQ

With `CC[C@H](C)[C@@H]([C@@H](CC(=O)N1CCC[C@H]1[C@H](OC)[C@@H](C)C(=O)N[C@@H](Cc1c[nH]c2ccccc12)C(=O)NCc1ccccc1)OC)N(C)C(=O)[C@@H](NC(=O)[C@H](C(C)C)N(C)CCCC(=O)NNC(=O)CCCCCN1C(=O)CC(SC[C@H](N)C(=O)O)C1=O)C(C)C` (stereo partly drawn) [Example 77, N-(4-{2-[6-(3-{[(2R)-2-Amino-2-carboxyethyl]sulphanyl}-2,5-dioxopyrrolidin-1-yl)hexanoyl]hydrazino}-4-oxobutyl)-N-methyl-L-valyl-N-[(3R,4S,5S)-1-{(2S)-2-[(1R,2R)-3-{[(2S)-1-(benzylamino)-3-(1H-indol-3-yl)-1-oxopropan-2-yl]amino}-1-methoxy-2-methyl-3-oxopropyl]pyrrolidin-1-yl}-3-methoxy-5-methyl-1-oxoheptan-4-yl]-N-methyl-L-valinamide] the “Tubulin polymerization in the presence of toxophore in [%]. Tubulin polymerization rate at 1 μM MMAF set at 100%” value (from here on “Tubulin polymerization in the presence … at 100%”) (tubulin; toxophore 1 μM) was 111%, the “Tubulin polymerization in the presence … at 100%” value (tubulin; toxophore 10 μM) was 45% and the Papp B→A at 2 h [1] was 0.7 ×10⁻⁶ cm/s. The Papp B→A at 2 h [2] was 0.2 ×10⁻⁶ cm/s.
In the case of `CC[C@H](C)[C@@H]([C@@H](CC(=O)N1CCC[C@H]1[C@H](OC)[C@@H](C)C(=O)N[C@@H](Cc1c[nH]c2ccccc12)C(=O)N1CCCCO1)OC)N(C)C(=O)[C@@H](NC(=O)[C@H](C(C)C)N(C)CCCCCC(=O)NCCCC[C@H](N)C(=O)O)C(C)C` [Example 115, N-(6-{[(5S)-5-Amino-5-carboxypentyl]amino}-6-oxohexyl)-N-methyl-L-valyl-N-[(3R,4S,5S)-1-{(2S)-2-[(1R,2R)-3-{[(2S)-3-(1H-indol-3-yl)-1-(1,2-oxazinan-2-yl)-1-oxopropan-2-yl]amino}-1-methoxy-2-methyl-3-oxopropyl]pyrrolidin-1-yl}-3-methoxy-5-methyl-1-oxoheptan-4-yl]-N-methyl-L-valinamide trifluoroacetate] (X1-V[Dil][Dolaproine]W-{Oxazinan2yl(1,2)}), the “Tubulin polymerization in the presence … at 100%” value (tubulin; toxophore 1 μM) is reported as 45%, the “Tubulin polymerization in the presence … at 100%” value (tubulin; toxophore 10 μM) is reported as 1% and the Papp B→A at 2 h [1] is reported as 0.2 ×10⁻⁶ cm/s. The Papp B→A at 2 h [2] was 0.6 ×10⁻⁶ cm/s.
With `CC[C@H](C)[C@@H]([C@@H](CC(=O)N1CCC[C@H]1[C@H](OC)[C@@H](C)C(=O)N[C@@H](Cc1c[nH]c2ccccc12)C(=O)O)OC)N(C)C(=O)[C@@H](NC(=O)[C@H](C(C)C)N(C)CCCCCC(=O)NCCCC[C@H](N)C(=O)O)C(C)C` [Example 116, N-(6-{[(5S)-5-Amino-5-carboxypentyl]amino}-6-oxohexyl)-N-methyl-L-valyl-N-[(3R,4S,5S)-1-{(2S)-2-[(1R,2R)-3-{[(1S)-1-carboxy-2-(1H-indol-3-yl)ethyl]amino}-1-methoxy-2-methyl-3-oxopropyl]pyrrolidin-1-yl}-3-methoxy-5-methyl-1-oxoheptan-4-yl]-N-methyl-L-valinamide] (X1-V[Dil][Dolaproine]W-OH) the “Tubulin polymerization in the presence … at 100%” value (tubulin; toxophore 1 μM) was 80%, the “Tubulin polymerization in the presence … at 100%” value (tubulin; toxophore 10 μM) was 14% and the Papp B→A at 2 h [1] was 0.1 ×10⁻⁶ cm/s. For the same compound, the Papp B→A at 2 h [2] was 0.4 ×10⁻⁶ cm/s.
In the case of `CC[C@H](C)[C@@H]([C@@H](CC(=O)N1CCC[C@H]1[C@H](OC)[C@@H](C)C(=O)N[C@H](C)[C@@H](O)c1ccccc1)OC)N(C)C(=O)[C@@H](NC(=O)[C@@H](NC)C(C)C)C(C)C` [MMAE, monomethylauristatin E, reference compound] (H-[NMeV]V[Dil][Dolaproine]-X5), the “Papp (B-A)” value (Caco-2 cells) is reported as 7.3 ×10⁻⁶ cm/s.
For `CC[C@H](C)[C@@H]([C@@H](CC(=O)N1CCC[C@H]1[C@H](OC)[C@@H](C)C(=O)N[C@@H](Cc1ccccc1)C(=O)O)OC)N(C)C(=O)[C@@H](NC(=O)[C@@H](NC)C(C)C)C(C)C` [MMAF, Monomethylauristatin F, reference compound] (H-[NMeV]V[Dil][Dolaproine]F-OH), the “inhibition of tubulin polymerization” value (tubulin) was “inhibit tubulin polymerization as a function of their concentration”, the “Tubulin polymerization in the presence … at 100%” value (tubulin; toxophore 1 μM) was 100% and the “Tubulin polymerization in the presence … at 100%” value (tubulin; toxophore 10 μM) was 34%. For the same compound, the “Papp (B-A)” value (Caco-2 cells) was 7.3 ×10⁻⁶ cm/s.
